# Literature values, collected in PubChem BioAssay AID1259409 (Chemical Carcinogenesis Research Information System (CCRIS), 2018).
# System: rodent chemically induced tumor inhibition, incidence and multiplicity
# Assay: CCRIS tumor inhibitor studies
smiles,measurement,setting,value
CC(C)Cc1ccc(C(C)C(=O)O)cc1 (configuration not stated),"tumour outcome (control, treated, inhibition, significance)","Carcinogen: 4-(METHYLNITROSAMINO)-1-(3-PYRIDYL-1-BUTANONE, 64091-91-4, Dose [Inhibitor]: 0, 263 MG/KG IN DIET FOR 25 WK BEGINNING 2 WK PRIOR TO CARCINOGEN TREATMENT (STUDY DURATION: 25 WK), Route [Inhibitor]: ORAL, Species: MOUSE, Strain/Sex: STRAIN-A/FEMALE, Target Tissue: Type of Lesion: FORESTOMACH: TUMOR, Dose [Carcinogen]: 9.1 MG IN DRINKING WATER FOR 7 WK, Promoter: NONE USED","7/25 (28%), 0/25 (0%), 100%, p<0.01"
same,"tumour outcome (control, treated, inhibition, significance)","Carcinogen: AZOXYMETHANE, 25843-45-2, Dose [Inhibitor]: 0, 400 PPM IN DIET BEGINNING 1 WK PRIOR TO CARCINOGEN TREATMENT FOR DURATION OF STUDY (STUDY DURATION: 54 WK), Route [Inhibitor]: ORAL, Species: RAT, Strain/Sex: F344/MALE, Target Tissue: Type of Lesion: COLON: ADENOCARCINOMA, Dose [Carcinogen]: 15 MG/KG/BW 1/WK FOR 2 WK, Promoter: NONE USED","58%, 33%, 43%, p<0.05"
same,"tumour outcome (control, treated, inhibition, significance)","Carcinogen: AZOXYMETHANE, 25843-45-2, Dose [Inhibitor]: 0, 200 PPM IN DIET BEGINNING 1 WK PRIOR TO CARCINOGEN TREATMENT FOR DURATION OF STUDY (STUDY DURATION: 54 WK), Route [Inhibitor]: ORAL, Species: RAT, Strain/Sex: F344/MALE, Target Tissue: Type of Lesion: COLON: ADENOCARCINOMA, Dose [Carcinogen]: 15 MG/KG/BW 1/WK FOR 2 WK, Promoter: NONE USED","58%, 41%, 29%, not calculated"
same,"tumour outcome (control, treated, inhibition, significance)","Carcinogen: AZOXYMETHANE, 25843-45-2, Dose [Inhibitor]: 0, 200 PPM IN DIET BEGINNING 1 WK PRIOR TO CARCINOGEN TREATMENT FOR DURATION OF STUDY (STUDY DURATION: 54 WK), Route [Inhibitor]: ORAL, Species: RAT, Strain/Sex: F344/MALE, Target Tissue: Type of Lesion: COLON: ADENOMA, Dose [Carcinogen]: 15 MG/KG/BW 1/WK FOR 2 WK, Promoter: NONE USED","6%, 6%, 0%, not calculated"
same,outcome,"Carcinogen: AZOXYMETHANE, 25843-45-2, Dose [Inhibitor]: 0, 400 PPM IN DIET BEGINNING 1 WK PRIOR TO CARCINOGEN TREATMENT FOR DURATION OF STUDY (STUDY DURATION: 54 WK), Route [Inhibitor]: ORAL, Species: RAT, Strain/Sex: F344/MALE, Target Tissue: Type of Lesion: COLON: ADENOMA, Dose [Carcinogen]: 15 MG/KG/BW 1/WK FOR 2 WK, Promoter: NONE USED","6%, 0,%, 100%, not calculated"
Nc1nc(N)c2nc(CNc3ccc(C(=O)N[C@@H](CCC(=O)O)C(=O)O)cc3)cnc2n1,"tumour outcome (control, treated, inhibition, significance)","Carcinogen: URETHANE, 51-79-6, Dose [Inhibitor]: 0.25 UG/G BW IN DISTILLED WATER 1/D FOR 3 D FOLLOWED BY 0.5 UG/G BW ONCE ADMINISTERED AT SAME TIME AS CARCINOGEN TREATME, Route [Inhibitor]: INTRAPERITONEAL, Species: MOUSE, Strain/Sex: SWR/MALE, Target Tissue: Type of Lesion: LUNG: ADENOMA, Dose [Carcinogen]: 0.5 MG/G BW IN DISTILLED WATER ONCE AT 13 WK OF AGE, Promoter: NONE USED","90%, 74%, 18%, not significant"
same,"tumour outcome (control, treated, inhibition, significance)","Carcinogen: URETHANE, 51-79-6, Dose [Inhibitor]: 0.25 UG/G BW IN DISTILLED WATER 1/D FOR 3 D FOLLOWED BY 0.5 UG/G BW ONCE ADMINISTERED AT SAME TIME AS CARCINOGEN TREATME, Route [Inhibitor]: INTRAPERITONEAL, Species: MOUSE, Strain/Sex: SWR/MALE, Target Tissue: Type of Lesion: LUNG: ADENOMA, Dose [Carcinogen]: 0.5 MG/G BW IN DISTILLED WATER ONCE AT 15 WK OF AGE, Promoter: NONE USED","82%, 90%, -10%, not significant"
C=C1C[C@H]2[C@@H]3C=C(C)C4=CC(=O)CC[C@]4(C)[C@H]3CC[C@]2(C)[C@@]1(OC(C)=O)C(C)=O,"tumour outcome (control, treated, inhibition, significance)","Carcinogen: NONE USED, Dose [Inhibitor]: 0, 0.1 MG/D IN DIET FOR THE DURATION OF STUDY (STUDY DURATION: LIFESPAN), Route [Inhibitor]: ORAL, Species: RAT, Strain/Sex: BDII/FEMALE, Target Tissue: Type of Lesion: UTERUS: ENDOMETRIAL CARCINOMA, Promoter: NONE USED","17/20 (85%), 0/20 (0%), 100%, not calculated"
same,"tumour outcome (control, treated, inhibition, significance)","Carcinogen: NONE USED, Dose [Inhibitor]: 0, 0.2 MG/D IN DIET FOR THE DURATION OF STUDY (STUDY DURATION: LIFESPAN), Route [Inhibitor]: ORAL, Species: RAT, Strain/Sex: BDII/FEMALE, Target Tissue: Type of Lesion: UTERUS: ENDOMETRIAL CARCINOMA, Promoter: NONE USED","17/20 (85%), 0/19 (0%), 100%, not calculated"
same,"tumour outcome (control, treated, inhibition, significance)","Carcinogen: NONE USED, Dose [Inhibitor]: 0, 0.4 MG/D IN DIET FOR THE DURATION OF STUDY (STUDY DURATION: LIFESPAN), Route [Inhibitor]: ORAL, Species: RAT, Strain/Sex: BDII/FEMALE, Target Tissue: Type of Lesion: UTERUS: ENDOMETRIAL CARCINOMA, Promoter: NONE USED","17/20 (85%), 0/17 (0%), 100%, not calculated"
O=S(=O)(O)c1ccccc1,"tumour outcome (control, treated, inhibition, significance)","Carcinogen: BETA-PROPIOLACTONE, 57-57-8, Dose [Inhibitor]: 40 UMOL IN 0.2 ML WATER 5 MIN PRIOR TO EACH CARCINOGEN DOSE (STUDY DURATION: 26 WK), Route [Inhibitor]: GAVAGE, Species: MOUSE, Strain/Sex: STRAIN-A/FEMALE, Target Tissue: Type of Lesion: FORESTOMACH: PAPILLOMA, Dose [Carcinogen]: 28 UMOL IN 0.1 ML WATER 2/WK FOR 10 WK, Promoter: NONE USED","100%, 100%, 0%, not significant"
O=C(/C=C/c1ccc(O)cc1)c1ccc(O)cc1O,"tumour outcome (control, treated, inhibition, significance)","Carcinogen: 7,12-DIMETHYLBENZ[A]ANTHRACENE, 57-97-6, Dose [Inhibitor]: 0, 0.4 UMOL 2/WK FOR 18 WK BEGINNING 10 D POST CARCINOGEN DOSE (STUDY DURATION: 20 WK), Route [Inhibitor]: DERMAL, Species: MOUSE, Strain/Sex: CD-1/FEMALE, Target Tissue: Type of Lesion: SKIN: PAPILLOMA, Dose [Carcinogen]: 200 NMOL ONCE, Promoter: 12-O-TETRADECANOYLPHORBOL-13-ACETATE, 16561-29-8","85%, 90%, -6%, not significant"
same,"tumour outcome (control, treated, inhibition, significance)","Carcinogen: 7,12-DIMETHYLBENZ[A]ANTHRACENE, 57-97-6, Dose [Inhibitor]: 0, 10 UMOL 2/WK FOR 18 WK BEGINNING 10 D POST CARCINOGEN DOSE (STUDY DURATION: 20 WK), Route [Inhibitor]: DERMAL, Species: MOUSE, Strain/Sex: CD-1/FEMALE, Target Tissue: Type of Lesion: SKIN: PAPILLOMA, Dose [Carcinogen]: 200 NMOL ONCE, Promoter: 12-O-TETRADECANOYLPHORBOL-13-ACETATE, 16561-29-8","85%, 50%, 41%, p<0.05"
same,"tumour outcome (control, treated, inhibition, significance)","Carcinogen: 7,12-DIMETHYLBENZ[A]ANTHRACENE, 57-97-6, Dose [Inhibitor]: 0, 10 UMOL 2/WK FOR 21 WK BEGINNING 10 D POST CARCINOGEN DOSE (STUDY DURATION: 23 WK), Route [Inhibitor]: DERMAL, Species: MOUSE, Strain/Sex: CD-1/FEMALE, Target Tissue: Type of Lesion: SKIN: PAPILLOMA, Dose [Carcinogen]: 200 NMOL ONCE, Promoter: 12-O-TETRADECANOYLPHORBOL-13-ACETATE, 16561-29-8","90%, 0%, 100%, p<0.05"
same,"tumour outcome (control, treated, inhibition, significance)","Carcinogen: 7,12-DIMETHYLBENZ[A]ANTHRACENE, 57-97-6, Dose [Inhibitor]: 0, 15 UMOL 2/WK FOR 18 WK BEGINNING 10 D POST CARCINOGEN DOSE (STUDY DURATION: 20 WK), Route [Inhibitor]: DERMAL, Species: MOUSE, Strain/Sex: CD-1/FEMALE, Target Tissue: Type of Lesion: SKIN: PAPILLOMA, Dose [Carcinogen]: 200 NMOL ONCE, Promoter: 12-O-TETRADECANOYLPHORBOL-13-ACETATE, 16561-29-8","85%, 5%, 95%, p<0.05"
O=c1[nH]cnc2[nH]ncc12,"tumour outcome (control, treated, inhibition, significance)","Carcinogen: N-BUTYL-N-(4-HYDROXYBUTYL)NITROSAMINE, 3817-11-6, Dose [Inhibitor]: 0.02% DIET DAILY FOR 34 WK STARTING AFTER CARCINOGEN TREATMENT (STUDY DURATION: 38 WK), Route [Inhibitor]: ORAL, Species: RAT, Strain/Sex: F344/MALE, Target Tissue: Type of Lesion: URINARY BLADDER: PAPILLOMA, Dose [Carcinogen]: 0.01% IN DRINKING WATER FOR 4 WK, Promoter: NONE USED","33%, 43%, -30%, not significant"
c1ccc2c(c1)Nc1ccccc1S2,"tumour outcome (control, treated, inhibition, significance)","Carcinogen: BENZO[A]PYRENE, 50-32-8, Dose [Inhibitor]: 0, 3.8 UMOL/G DIET BEGINNING 1 WK PRIOR TO CARCINOGEN TREATMENT AND CONTINUING FOR 1 WK POST CARCINOGEN TREATMENT FOLLOW, Route [Inhibitor]: ORAL, Species: MOUSE, Strain/Sex: CD-1/FEMALE, Target Tissue: Type of Lesion: FORESTOMACH: PAPILLOMA, Dose [Carcinogen]: 1 MG IN 0.2 ML CORN OIL 2/WK FOR 4 WK, Promoter: NONE USED","85%, 100%, -18%, not significant"
